A word on the melting point: it is the temperature of the solid-liquid transition.

This note sets out measurements from US20060122191A1, “N-(indolethyl-)cycloamine compounds” (priority 2002, published 2006).

Data set [1] concerns the target T1, serotonin reuptake (SSRI) (Rattus norvegicus, UniProt P31652).
T1 construct: from tissue
The experiment in a line: Serotonin reuptake inhibition (SSRI), receptor binding studies. The class given is biochemical. The source says:
(§1) In-vitro evidence of interaction with the above-mentioned receptors can be provided, for example, as described in the following references: • 5-HT1A: Cossery J. M., Gozlan H., Spampinato U., Perdicakis C., Guillaumet G., Pichat L., Hamon M., 1987. The selective labeling of central 5-HT1A receptor binding sites by [3H]5-methoxy-3-(di-n-propylamino)chroman. Eur. J. Pharmacol. 140,143-55. • 5-HT2A: Klockow M., Greiner H. E., Haase A., Schmitges C.-J., Seyfried C. 1986. Studies on the receptor profile of bisoprolol. Arzneimittelforschung 36,197-200. • SSRI: Wong, D T, Bymaster, F P, Mayle, D A. Reid, L R, Krushinski, J H, Robertson, D W. LY248686, a new inhibitor of serotonin and norepinephrine uptake. Neuropsychopharmacology 8, 23-33, 1993
(§2) As illustrative of two compounds of the formula I, receptor binding constants determined by the test systems described at the outset are indicated below: […]

Another data set has as its target 5-HT2A (UniProt P14842). The experiment in a line: 5-HT2A receptor binding.
Text: as §1, §2

For a further data set, the target named is T2, 5-HT1A (Rattus norvegicus, UniProt P19327).
T2 construct: from tissue
T2 sequence (P19327 1-422): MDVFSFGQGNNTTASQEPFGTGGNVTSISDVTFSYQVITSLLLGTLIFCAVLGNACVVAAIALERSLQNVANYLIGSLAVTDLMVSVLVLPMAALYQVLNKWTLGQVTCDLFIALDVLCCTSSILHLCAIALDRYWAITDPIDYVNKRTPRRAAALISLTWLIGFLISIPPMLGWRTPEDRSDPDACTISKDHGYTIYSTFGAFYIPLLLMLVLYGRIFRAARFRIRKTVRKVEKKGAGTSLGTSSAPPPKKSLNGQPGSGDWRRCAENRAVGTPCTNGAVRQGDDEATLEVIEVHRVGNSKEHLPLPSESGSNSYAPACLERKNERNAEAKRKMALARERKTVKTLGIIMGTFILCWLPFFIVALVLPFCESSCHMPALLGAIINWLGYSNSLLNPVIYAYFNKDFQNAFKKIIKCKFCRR
The experiment in a line: 5-HT1A receptor binding.
Text: as §1, §2

The structures appear in SMILES notation. Structures can show the parent of a compound that is named as a salt. Where two headings read alike, the source gives them in different places.

T1 sequence (P31652 whole entry): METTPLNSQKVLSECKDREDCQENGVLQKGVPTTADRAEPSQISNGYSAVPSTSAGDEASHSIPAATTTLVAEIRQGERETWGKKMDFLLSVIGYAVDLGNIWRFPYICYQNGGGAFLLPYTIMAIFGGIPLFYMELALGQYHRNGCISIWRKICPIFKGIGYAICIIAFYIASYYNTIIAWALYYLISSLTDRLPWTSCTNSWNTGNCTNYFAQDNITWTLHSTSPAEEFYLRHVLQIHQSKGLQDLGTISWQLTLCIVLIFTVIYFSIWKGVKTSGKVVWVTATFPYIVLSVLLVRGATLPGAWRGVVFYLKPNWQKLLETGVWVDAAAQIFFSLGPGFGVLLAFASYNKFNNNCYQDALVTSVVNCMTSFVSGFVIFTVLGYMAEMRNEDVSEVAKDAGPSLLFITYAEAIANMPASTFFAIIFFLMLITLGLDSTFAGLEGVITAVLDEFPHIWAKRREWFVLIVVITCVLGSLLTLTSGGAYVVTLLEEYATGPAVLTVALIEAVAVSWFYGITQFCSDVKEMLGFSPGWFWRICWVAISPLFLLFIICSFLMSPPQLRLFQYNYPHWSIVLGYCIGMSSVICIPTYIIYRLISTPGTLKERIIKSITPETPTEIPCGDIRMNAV

On to `N#Cc1ccc2[nH]cc(CCN3CCN(c4cccc5c4OCCO5)CC3)c2c1` (as salt: hydrochloride) [a), 3-{2-[4-(2,3-Dihydrobenzo-1,4-dioxin-5-yl)piperazin-1-yl]ethyl}-1H-indole-5-carbonitrile], for which the melting point lay within 277.5 to 278.5 °C.
In the case of `N#Cc1ccc2[nH]cc(CCN3CCN(c4cccc5c4OCCO5)CC3)c2c1` [a), 3-{2-[4-(2,3-Dihydrobenzo-1,4-dioxin-5-yl)piperazin-1-yl]ethyl}-1H-indole-5-carbonitrile], the Ki in data set [1] (test system per Wong et al. 1993, read-out: receptor binding constant SSRI) worked out at 11 nM; on 5-HT2A (test system per Klockow et al. 1986; read-out: receptor binding constant 5-HT2A), 11 nM; on 5-HT1A, 17 nM.
With `N#Cc1ccc2[nH]cc(CCN3CCN(c4cccc5nsnc45)CC3)c2c1` [b), 3-[2-(4-Benzo-1,2,5-thiadiazol-4-yl-piperazin-1-yl)ethyl]-1H-indole-5-carbonitrile], the Ki was determined as 4.3 nM in data set [1]; 7.3 nM at 5-HT2A (read-out: receptor binding constant 5-HT2A; test system per Klockow et al. 1986); 110 nM at 5-HT1A (test system per Cossery et al. 1987, read-out: receptor binding constant 5-HT1A).
